In patent US20260265689A1, “BIOHYBRID ROBOT INCLUDING RETINAL/BRAIN ORGANOID, MOTOR NERVE SPHEROID, AND MUSCLE BUNDLE, AND MANUFACTURING METHOD THEREFOR” (SOGANG UNIVERSITY RESEARCH & BUSINESS DEVELOPMENT FOUNDATION, priority 2023, published 2026):

Assays:
brain organoids = test: Electrophysiological signal measurement of retinal/brain organoid conjugates using a multi-electrode array; type: cell-based, human; details: 100 μM glutamate mixed into the co-culture medium
Protocol: The formation of conjugates of brain organoids and retinal organoids in Examples 1-3 above was confirmed through signal measurement using a multi-electrode array. Retinal/brain organoids were placed on electrodes of the multi-electrode array for signal measurement, and then the generation of electrophysiological signals was measured while light was applied to the retinal organoids. In addition, glutamate was added as a neurotransmitter to the co-culture medium used in the multi-electrode array, and electrophysiological signals generated from brain organoids were measured.

[1] = test system: brain organoid of the versatile biohybrid robot; test: Movement of the versatile biohybrid robot in co-culture media; set-up: species or system human; details: brain organoid stimulated using glutamate; 0.27 cm/min before stimulation

Which “electrophysiological signals generated by stimulating brain organoids” value (brain organoids) does the source give for `N[C@@H](CCC(=O)O)C(=O)O` [glutamate] here?
The value was “transmitted to the brain organoids”.

And the “movement of the biohybrid robot after stimulation” value [1]?
Its value is 0.52 cm/min.
